Assay [1] deals with Cyclin-dependent kinase 5 (Homo sapiens, UniProt Q00535). In words: Inhibition of CDK5.
Assay [2] addresses Glycogen synthase kinase-3 beta (Homo sapiens, UniProt P49841). In words: Inhibition of GSK3-beta.
Assay [3] is described as follows: Inhibition of tubulin polymerization.
The target in assay [4] is Cyclin-dependent kinase 1/cyclin B1 (Homo sapiens, UniProt P06493). In words: Inhibition of CDK1/cyclin B. The class given is protein-complex assay.

Where only a bound is given, the exact number is not on record here.

Cyclin-dependent kinase 1/cyclin B1, sequence (P06493 whole entry): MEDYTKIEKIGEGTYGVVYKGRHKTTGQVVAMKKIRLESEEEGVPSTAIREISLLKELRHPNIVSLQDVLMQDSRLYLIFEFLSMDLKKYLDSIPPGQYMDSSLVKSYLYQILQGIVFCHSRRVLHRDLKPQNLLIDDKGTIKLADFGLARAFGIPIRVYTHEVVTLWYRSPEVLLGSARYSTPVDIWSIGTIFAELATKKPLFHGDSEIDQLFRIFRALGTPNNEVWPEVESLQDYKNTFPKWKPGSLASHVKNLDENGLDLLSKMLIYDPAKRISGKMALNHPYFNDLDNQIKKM
Cyclin-dependent kinase 1/cyclin B1, sequence (P14635 whole entry, further chain): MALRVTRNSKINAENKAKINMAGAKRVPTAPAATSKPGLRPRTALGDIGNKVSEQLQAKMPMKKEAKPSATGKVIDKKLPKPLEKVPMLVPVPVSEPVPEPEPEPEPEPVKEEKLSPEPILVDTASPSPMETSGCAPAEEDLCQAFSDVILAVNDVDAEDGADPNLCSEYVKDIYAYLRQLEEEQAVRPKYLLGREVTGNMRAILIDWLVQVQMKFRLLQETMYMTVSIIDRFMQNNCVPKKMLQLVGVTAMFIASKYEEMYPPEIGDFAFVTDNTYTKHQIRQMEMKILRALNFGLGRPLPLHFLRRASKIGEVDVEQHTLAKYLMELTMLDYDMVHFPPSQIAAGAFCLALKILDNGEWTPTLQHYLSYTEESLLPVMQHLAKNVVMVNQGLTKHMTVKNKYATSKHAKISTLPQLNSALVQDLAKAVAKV
Glycogen synthase kinase-3 beta, sequence (P49841 whole entry): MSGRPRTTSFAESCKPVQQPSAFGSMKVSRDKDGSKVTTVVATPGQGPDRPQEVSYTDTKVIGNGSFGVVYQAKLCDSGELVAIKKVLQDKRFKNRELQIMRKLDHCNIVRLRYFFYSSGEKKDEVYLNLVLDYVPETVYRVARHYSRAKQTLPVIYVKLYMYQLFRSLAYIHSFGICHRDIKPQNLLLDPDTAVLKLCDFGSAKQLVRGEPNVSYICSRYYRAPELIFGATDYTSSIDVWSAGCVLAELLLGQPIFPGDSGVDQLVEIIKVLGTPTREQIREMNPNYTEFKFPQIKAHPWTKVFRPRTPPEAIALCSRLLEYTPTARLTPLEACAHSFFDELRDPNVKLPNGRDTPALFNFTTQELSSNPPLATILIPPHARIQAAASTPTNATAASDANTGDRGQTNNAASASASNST
Cyclin-dependent kinase 5, sequence (Q00535 whole entry): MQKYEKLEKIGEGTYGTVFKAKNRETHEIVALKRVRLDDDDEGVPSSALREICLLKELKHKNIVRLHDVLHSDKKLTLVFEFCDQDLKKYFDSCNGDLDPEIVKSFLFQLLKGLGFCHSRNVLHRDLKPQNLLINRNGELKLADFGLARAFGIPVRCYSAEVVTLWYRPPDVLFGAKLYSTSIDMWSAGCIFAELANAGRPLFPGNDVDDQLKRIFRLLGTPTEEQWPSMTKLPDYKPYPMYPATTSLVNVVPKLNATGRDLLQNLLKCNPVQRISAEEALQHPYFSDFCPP

Consider `O=c1[nH]c2occ(-c3ccc(F)cc3)c2n2cccc12`, for which the IC50 in assay [1] and in assay [2] was greater than 50 µM each time.
On to `COc1ccc(-c2c[nH]c3c2-n2cccc2C3=O)cc1OC`, for which the IC50 in assay [1] and in assay [2] was greater than 50 µM throughout.
Consider `COc1ccc(-c2csc3c2-n2cccc2C3=O)cc1O`, for which the figures for the half-maximal inhibitory concentration (IC50) in assay [3] and in assay [4] were 2900 nM and 5.5 µM, respectively.
Take `COc1ccc(-c2c[nH]c3c2-n2cccc2/C3=N/O)cc1O`: the figures for the IC50 in assay [4], in assay [1] and in assay [2] were 3.8 µM, 3.2 µM and 5.5 µM, respectively.
Regarding `COc1ccc(-c2c[nH]c3[nH]c(=O)c4cccn4c23)cc1OC`, the IC50 in assay [1] and in assay [2] was greater than 50 µM in each case.
Consider `COc1ccc(-c2c[nH]c3c2-n2cccc2C3=O)cc1OCc1ccccc1`, for which the 50% inhibitory concentration (IC50) in assay [4], in assay [1] and in assay [2] was greater than 50 µM each time.
Take `COc1ccc(-c2coc3[nH]c(=O)c4cccn4c23)cc1`: the half-inhibitory concentration (IC50) in assay [1] and in assay [2] was greater than 50 µM throughout.
`O=C1c2[nH]cc(-c3ccc(Cl)cc3)c2-n2cccc21`: the IC50 in assay [4], in assay [1] and in assay [2] was greater than 50 µM each time.
Regarding `Cc1ccc(-c2coc3[nH]c(=O)c4cccn4c23)cc1`, the IC50 in assay [1] and in assay [2] was greater than 50 µM in each case.
For the molecule `COc1ccc(-c2c[nH]c3c2-n2cccc2/C3=N/O)cc1OCc1ccccc1`, the results for the half-maximal inhibitory concentration (IC50) in assay [4], in assay [1] and in assay [2] were 9 µM, 14 µM and 17 µM, respectively.
With `COc1ccc(-c2coc3[nH]c(=O)c4cccn4c23)cc1OC`, the half-maximal inhibitory concentration (IC50) in assay [1] and in assay [2] was greater than 50 µM throughout.
Take `COc1ccc(-c2csc3c2-n2cccc2C3=O)cc1OCc1ccccc1`: the IC50 in assay [4] and in assay [2] was greater than 50 µM each time.
Turning to `COc1ccc(-c2coc3c2-n2cccc2C3=O)cc1OC`, the IC50 in assay [4], in assay [1] and in assay [2] was greater than 50 µM each time.
In the case of `O=c1[nH]c2[nH]cc(-c3ccc(Cl)cc3)c2n2cccc12`, the IC50 in assay [1] and in assay [2] was greater than 50 µM throughout.
Regarding `O=c1[nH]c2occ(-c3ccc(Cl)c(Cl)c3)c2n2cccc12`, the IC50 in assay [1] and in assay [2] was greater than 50 µM in each case.
With `O=c1[nH]c2occ(-c3ccc(Br)cc3)c2n2cccc12`, the IC50 in assay [1] and in assay [2] was greater than 50 µM each time.
Consider `COc1ccc(-c2c[nH]c3c2-n2cccc2C3=O)cc1O`, for which the values for the concentration for half-maximal inhibition (IC50) in assay [4], in assay [1] and in assay [2] were 22 µM, 30 µM and 11 µM, respectively.
